Usually pIC50 stands for the IC50 on a negative log10 scale, so that one unit is a factor of ten. Read a high pIC50 as a low IC50.

pIC50: −log10 of the molar value. A value given as a limit tells only on which side of the number the result lay.

T1 sequence (J9SQF3 1-1709 isoform J9SQF3-12): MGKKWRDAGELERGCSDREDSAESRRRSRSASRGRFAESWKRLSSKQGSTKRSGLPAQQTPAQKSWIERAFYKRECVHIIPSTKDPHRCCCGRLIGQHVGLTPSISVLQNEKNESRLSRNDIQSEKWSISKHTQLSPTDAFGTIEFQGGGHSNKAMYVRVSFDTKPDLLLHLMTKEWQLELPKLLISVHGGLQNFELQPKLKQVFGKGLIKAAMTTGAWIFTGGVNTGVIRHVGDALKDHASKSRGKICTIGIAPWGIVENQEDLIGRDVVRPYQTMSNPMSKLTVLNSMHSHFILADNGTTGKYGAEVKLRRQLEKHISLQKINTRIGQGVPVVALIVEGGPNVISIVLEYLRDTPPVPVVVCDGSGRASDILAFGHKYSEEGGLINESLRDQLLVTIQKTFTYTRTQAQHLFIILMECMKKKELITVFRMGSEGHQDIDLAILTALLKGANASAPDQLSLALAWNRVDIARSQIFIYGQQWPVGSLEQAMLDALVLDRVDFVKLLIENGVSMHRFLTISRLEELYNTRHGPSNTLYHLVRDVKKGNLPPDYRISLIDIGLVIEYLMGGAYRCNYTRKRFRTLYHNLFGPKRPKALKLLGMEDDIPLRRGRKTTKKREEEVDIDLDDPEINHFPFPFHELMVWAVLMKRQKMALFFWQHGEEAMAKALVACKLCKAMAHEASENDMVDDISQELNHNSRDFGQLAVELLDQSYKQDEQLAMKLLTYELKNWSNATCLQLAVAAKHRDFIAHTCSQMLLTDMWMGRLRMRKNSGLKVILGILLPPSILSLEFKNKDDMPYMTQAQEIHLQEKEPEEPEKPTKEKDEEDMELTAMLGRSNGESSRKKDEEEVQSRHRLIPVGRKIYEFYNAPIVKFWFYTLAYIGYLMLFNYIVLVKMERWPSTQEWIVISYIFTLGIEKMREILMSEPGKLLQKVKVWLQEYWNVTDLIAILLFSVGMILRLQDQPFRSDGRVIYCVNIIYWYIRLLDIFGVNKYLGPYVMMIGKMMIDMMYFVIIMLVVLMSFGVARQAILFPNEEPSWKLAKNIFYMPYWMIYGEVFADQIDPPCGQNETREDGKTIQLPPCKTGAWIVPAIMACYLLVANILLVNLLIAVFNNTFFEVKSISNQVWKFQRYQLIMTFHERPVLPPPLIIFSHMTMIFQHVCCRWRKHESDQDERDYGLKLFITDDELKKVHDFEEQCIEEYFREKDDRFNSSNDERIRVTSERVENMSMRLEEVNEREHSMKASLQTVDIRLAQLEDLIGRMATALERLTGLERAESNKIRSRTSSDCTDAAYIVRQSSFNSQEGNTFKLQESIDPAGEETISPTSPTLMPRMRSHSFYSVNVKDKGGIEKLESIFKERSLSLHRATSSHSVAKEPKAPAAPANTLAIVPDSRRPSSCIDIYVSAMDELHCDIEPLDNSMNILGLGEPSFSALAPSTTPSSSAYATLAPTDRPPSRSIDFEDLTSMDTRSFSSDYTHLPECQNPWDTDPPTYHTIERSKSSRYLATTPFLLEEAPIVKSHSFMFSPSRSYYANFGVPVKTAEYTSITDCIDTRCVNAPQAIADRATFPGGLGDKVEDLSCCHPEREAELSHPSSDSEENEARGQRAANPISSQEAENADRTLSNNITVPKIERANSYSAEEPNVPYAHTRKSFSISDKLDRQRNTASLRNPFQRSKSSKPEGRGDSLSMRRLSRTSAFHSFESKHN

This test addresses T1, mouse TRPM3α2 (mTRPM3) ion channel (Mus musculus, UniProt J9SQF3).
T1 construct: expressed in transfected cells; host or cells: Flp-In HEK293
As to the kind of experiment: TRPM3 ion channel driven Ca2+ uptake (Fluo-4 AM assay), PS-stimulated overexpressing HEK293 cells. It is filed as cell-based. The note with it: flip-in HEK293 overexpressing TRPM3, stimulated with Pregnenolone sulfate (PS) 50 μM, activity ranges A, B, C. On the procedure:
In order to monitor the inhibition of the mouse TRPM3α2 (mTRPM3) ion channel by the compounds of the invention, a cellular system making use of an mTRPM3alpha2 or hTRPM3 overexpressing cell line (flip-in HEK293) was used. The TRPM3 channel was stimulated/opened with Pregnenolone sulfate (PS) (50 μM) which results in Ca^2+ influx.
For mTRPM3, the intracellular Ca^2+ was measured with a Calcium responsive dye, Fluor-4 AMV ester (Invitrogen). Cells were cultured until a confluence of 80-90%, washed with Versene (Invitrogen) and detached from the surface by a short incubation with 0.05% Trypsin (Invitrogen). The trypsination process was stopped by the addition of complete cell culture medium (DMEM, glutamax, 10% FCS, NEAA, Pen-Strep). Cells were collected and resuspended in Krebs buffer without Calcium at RT.
Prior the cell seeding (±2000 cells/well into a black, 384 well plate (Greiner)) the diluted compound was added in the assay plate, together with the PS dissolved in Krebs buffer containing Calcium. […] Directly after cell addition the plates were read on an Envision fluorescence reader (Perkin Elmer) by an Excitation of 485 nm and emission at 535 nm.
Channel inhibition was calculated compared to a non-PS stimulated control versus a condition stimulated with PS (50 μM) with vehicle. The ability of the compounds of the invention to inhibit this activity was determined as: Percentage inhibition=[1-((RFU determined for sample with test compound present−RFU determined for sample with positive control inhibitor) divided by (RFU determined in the presence of vehicle−RFU determined for sample with positive control inhibitor))]*100.
The activities of the Example compounds tested are depicted in the table below. The activity ranges A, B and C refer to IC50 values in the Fluo-4 AM assay as follows: “A”: IC50<1 μM; “B”: 1 μM≤IC50≤20 μM and “C”: IC50>20 μM
The compound `Cc1oc2cnc(OCc3ccccn3)cc2c1C(=O)NC(C)C(N)=O` (single isomer, unassigned) [Cpd 006 _ En1, 2-({2-methyl-5-[(pyridin-2-yl)methoxy]furo[2,3-c]pyridin-3-yl}formamido)propanamide] showed a negative-log IC50 (pIC50) of 4.70 to 6.00.

For the compound `Cc1ncsc1COc1cc2c(C(=O)NC(C)C(N)=O)c(C)oc2cn1` (single isomer, unassigned) [Cpd 005-En2, 2-({2-methyl-5-[(4-methyl-1,3-thiazol-5-yl)methoxy]furo[2,3-c]pyridin-3-yl}formamido)propanamide], the pIC50 is less than 4.70.

In the case of `Cc1oc2cnc(OCc3ccccc3F)cc2c1C(=O)NC(CO)C(N)=O` (single isomer, unassigned) [Cpd 008-En1, 2-({5-[(2-fluorophenyl)methoxy]-2-methylfuro[2,3-c]pyridin-3-yl}formamido)-3-hydroxypropanamide], the negative logarithm of the IC50 (pIC50) is 4.70 to 6.00.

`Cc1ncc(COc2cc3c(C(=O)N[C@@H](CO)C(N)=O)c(C)oc3cn2)s1` [Cpd 001, (2S)-3-hydroxy-2-({2-methyl-5-[(2-methyl-1,3-thiazol-5-yl)methoxy]furo[2,3-c]pyridin-3-yl}formamido)propanamide] gave a pIC50 of 4.70 to 6.00.

`Cc1ncsc1COc1cc2c(C(=O)NC3(C(N)=O)COC3)c(C)oc2cn1` [Cpd 019, N-(3-carbamoyloxetan-3-yl)-2-methyl-5-[(4-methyl-1,3-thiazol-5-yl)methoxy]furo[2,3-c]pyridine-3-carboxamide]: the pIC50 was less than 4.70.

As to `Cc1ncsc1COc1cc2c(C(=O)NC3(CO)COC3)c(C)oc2cn1` [Cpd 033, N-[3-(hydroxymethyl)oxetan-3-yl]-2-methyl-5-[(4-methyl-1,3-thiazol-5-yl)methoxy]furo[2,3-c]pyridine-3-carboxamide], the negative logarithm of the IC50 (pIC50) was 4.70 to 6.00.

The compound `Cc1oc2cnc(OCc3cccnc3C(F)(F)F)cc2c1C(=O)N[C@H]1CCNCC1(F)F` [Cpd 026, N-[(4S)-3,3-difluoropiperidin-4-yl]-2-methyl-5-{[2-(trifluoromethyl)pyridin-3-yl]methoxy}furo[2,3-c]pyridine-3-carboxamide] showed a negative logarithm of the IC50 (pIC50) of 4.70 to 6.00.

For the compound `Cc1ncsc1CCOc1cc2c(C(=O)NC3CNCC3(F)F)c(C)oc2cn1` (centres unmarked) [Cpd 023-En1, N-(4,4-difluoropyrrolidin-3-yl)-2-methyl-5-[2-(4-methyl-1,3-thiazol-5-yl)ethoxy]furo[2,3-c]pyridine-3-carboxamide], the pIC50 is 4.70 to 6.00.

For `Cc1oc2cnc(OCc3ccccc3F)cc2c1C(=O)NC1CCN(CCO)C1=O` (single isomer, unassigned) [Cpd 017-En2, 5-[(2-fluorophenyl)methoxy]-N-[1-(2-hydroxyethyl)-2-oxopyrrolidin-3-yl]-2-methylfuro[2,3-c]pyridine-3-carboxamide], the pIC50 was 4.70 to 6.00.

For `Cc1oc2cnc(OCc3ccccc3F)cc2c1C(=O)N[C@H](C(N)=O)[C@@H](C)O` [Cpd 002, (2S,3R)-2-({5-[(2-fluorophenyl)methoxy]-2-methylfuro[2,3-c]pyridin-3-yl}formamido)-3-hydroxybutanamide], the pIC50 is greater than 6.00.

As to `Cc1oc2cnc(OCc3ccccc3F)cc2c1C(=O)NC1CCN(CCO)C1=O` (single isomer, unassigned) [Cpd 017-En1, 5-[(2-fluorophenyl)methoxy]-N-[1-(2-hydroxyethyl)-2-oxopyrrolidin-3-yl]-2-methylfuro[2,3-c]pyridine-3-carboxamide], the pIC50 was 4.70 to 6.00.

On to `Cc1oc2cnc(OCc3ccccn3)cc2c1C(=O)NC1(C(N)=O)CCOCC1` [Cpd 024, N-(4-carbamoyloxan-4-yl)-2-methyl-5-[(pyridin-2-yl)methoxy]furo[2,3-c]pyridine-3-carboxamide], for which the pIC50 was 4.70 to 6.00.

Regarding `Cc1oc2cnc(OCCc3ccccc3)cc2c1C(=O)NC1CNCC1(F)F` (centres unmarked) [Cpd 022-En1, N-(4,4-difluoropyrrolidin-3-yl)-2-methyl-5-(2-phenylethoxy)furo[2,3-c]pyridine-3-carboxamide], the pIC50 was 4.70 to 6.00.

Regarding `COc1ncccc1COc1cc2c(C(=O)NC3(CO)CC3)c(C)oc2cn1` [Cpd 032, N-[1-(hydroxymethyl)cyclopropyl]-5-[(2-methoxypyridin-3-yl)methoxy]-2-methylfuro[2,3-c]pyridine-3-carboxamide], the negative logarithm of the IC50 (pIC50) is less than 4.70.

These data come from patent US20250346605A1, “NEW DERIVATIVES FOR TREATING TRPM3 MEDIATED DISORDERS” (Katholieke Universiteit Leuven, priority 2022, published 2025).
